The assay relates to HIV. In words: Table 1 IC50 of the examples (assay method not given; patent concerns inhibiting HIV replication). Type of assay: cell-based. As to conditions: Human immunodeficiency virus 1.
The compound `Cc1cccc(C(=O)N2CCc3c2cc(C)c([C@H](OC(C)(C)C)C(=O)O)c3-c2cc(F)c3c(c2C)CCCO3)c1F` (atropisomer, axis not shown) [Example 118, (S)-2-(tert-Butoxy)-2-((R)-1-(2-fluoro-3-methylbenzoyl)-4-(8-fluoro-5-methylchroman-6-yl)-6-methylindolin-5-yl)acetic acid] yielded an IC50 of 5 nM.

Regarding `Cc1ccc(C(=O)N2CCc3c2cc(C)c([C@H](OC(C)(C)C)C(=O)O)c3-c2cc(F)c3c(c2C)CCCO3)c(Cl)c1` (atropisomer, axis not shown) [Example 137, (S)-2-(tert-Butoxy)-2-((R)-1-(2-chloro-4-methylbenzoyl)-4-(8-fluoro-5-methylchroman-6-yl)-6-methylindolin-5-yl)acetic acid], the IC50 was 4 nM.

With `Cc1ccc(-c2c3c(cc(C)c2C(OC(C)(C)C)C(=O)O)N(Cc2ccc(F)c(F)c2)CC3)cc1` (stereo not shown) [Example 1], the 50% inhibitory concentration (IC50) turned out to be 517 nM.

Turning to `Cc1cc2c(c(-c3cc(F)c4c(c3C)CCCO4)c1[C@H](OC(C)(C)C)C(=O)O)CCN2C(=O)CCc1ccccc1` (atropisomer, axis not shown) [Example 58, (S)-2-(tert-Butoxy)-2-((R)-4-(8-fluoro-5-methylchroman-6-yl)-6-methyl-1-(3-phenyl/propanoyl)indolin-5-yl)acetic acid], the half-maximal inhibitory concentration (IC50) was determined as 41 nM.

In turn, `Cc1cc2c(c(-c3cc(F)c4c(c3C)CCCO4)c1[C@H](OC(C)(C)C)C(=O)O)CCN2C(=O)c1cccc(Cl)c1Cl` (atropisomer, axis not shown) [Example 92, (S)-2-(tert-Butoxy)-2-((R)-1-(2,3-dichlorobenzoyl)-4-(8-fluoro-5-methylchroman-6-yl)-6-methylindolin-5-yl)acetic acid] had an IC50 of 6 nM.

Compound `COc1cccc(C(=O)N2CCc3c2cc(C)c([C@H](OC(C)(C)C)C(=O)O)c3-c2cc(F)c3c(c2C)CCCO3)c1` (atropisomer, axis not shown) [Example 162, (S)-2-(tert-Butoxy)-2-((R)-4-(8-fluoro-5-methylchroman-6-yl)-1-(3-methoxybenzoyl)-6-methylindolin-5-yl)acetic acid] yielded a half-inhibitory concentration (IC50) of 7 nM.

Compound `Cc1cc2c(ccn2Cc2ccccn2)c(-c2cc(F)c3c(c2C)CCCO3)c1[C@H](OC(C)(C)C)C(=O)O` (atropisomer, axis not shown) [Example 201, (S)-2-(tert-Butoxy)-2-((R)-4-(8-Fluoro-5-methylchroman-6-yl)-6-methyl-1-(pyridin-2-ylmethyl)-1H-indol-5-yl)acetic acid] displayed an IC50 of 80 nM.

As to `Cc1ccc(-c2c3c(cc(C)c2[C@H](OC(C)(C)C)C(=O)O)N(C(=O)c2ccc(F)cc2C)CC3)cc1` [Example 44, (S)-2-(tert-Butoxy)-2-(1-(4-fluoro-2-methylbenzoyl)-6-methyl-4-(p-tolyl)indolin-5-yl)acetic acid], the midpoint of inhibition, the IC50, lay at 6 nM.

Take `COc1ccc(C(=O)N2CCc3c2cc(C)c([C@H](OC(C)(C)C)C(=O)O)c3-c2cc(F)c3c(c2C)CCCO3)c(F)c1` (atropisomer, axis not shown) [Example 85, (S)-2-(tert-Butoxy)-2-((R)-1-(2-fluoro-4-methoxybenzoyl)-4-(8-fluoro-5-methylchroman-6-yl)-6-methylindolin-5-yl)acetic acid]: the concentration for half-maximal inhibition (IC50) came out at 6 nM.

As to `Cc1ccc(C(=O)N2CCc3c2cc(C)c([C@H](OC(C)(C)C)C(=O)O)c3-c2cc(F)c3c(c2C)CCCO3)cn1` (atropisomer, axis not shown) [Example 116, (S)-2-(tert-Butoxy)-2-((R)-4-(8-fluoro-5-methylchroman-6-yl)-6-methyl-1-(6-methylnicotinoyl)indolin-5-yl)acetic acid], 11 nM corresponded to half-maximal inhibition (IC50).

On to `COc1cc(F)cc(C(=O)N2CCc3c2cc(C)c([C@H](OC(C)(C)C)C(=O)O)c3-c2cc(F)c3c(c2C)CCCO3)c1` [Example 158, (S)-2-(tert-Butoxy)-2-((R)-1-(3-fluoro-5-methoxybenzoyl)-4-(8-fluoro-5-methylchroman-6-yl)-6-methylindolin-5-yl) acetic acid], for which 3 nM corresponded to half-maximal inhibition (IC50).

As for `Cc1ccc(C(=O)N2c3cc(C)c([C@H](OC(C)(C)C)C(=O)O)c(-c4cc(F)c5c(c4C)CCCO5)c3CC2(C)C)cn1` (atropisomer, axis not shown) [Example 204, (S)-2-(tert-Butoxy)-2-((R)-4-(8-Fluoro-5-methylchroman-6-yl)-2,2,6-trimethyl-1-(6-methylnicotinoyl)indolin-5-yl)acetic acid], the midpoint of inhibition, the IC50, lay at 19 nM.

`Cc1cc2c(c(-c3cc(F)c4c(c3C)CCCO4)c1[C@H](OC(C)(C)C)C(=O)O)CCN2C(=O)c1cnccc1Cl` (atropisomer, axis not shown) [Example 51, (S)-2-(tert-Butoxy)-2-((R)-1-(4-chloronicotinoyl)-4-(8-fluoro-5-methylchroman-6-yl)-6-methylindolin-5-yl)acetic acid] had a half-maximal inhibitory concentration (IC50) of 17 nM.

`COC(=O)c1cccc(CN2CCCc3c2cc(C)c(C(OC(C)(C)C)C(=O)O)c3-c2ccc(C)cc2)c1` (stereo not shown) [Example 209, 2-(tert-Butoxy)-2-(1-(3-(methoxycarbonyl)benzyl)-7-methyl-5-(p-tolyl)-1,2,3,4-tetrahydroquinolin-6-yl)acetic acid] came in with an IC50 of 1340 nM.

With `COc1ccc(C(=O)N2CCc3c2cc(C)c([C@H](OC(C)(C)C)C(=O)O)c3-c2cc(F)c3c(c2C)CCCO3)c(C(F)(F)F)c1` (atropisomer, axis not shown) [Example 152, (S)-2-(tert-Butoxy)-2-((R)-4-(8-fluoro-5-methylchroman-6-yl)-1-(4-methoxy-2-(trifluoromethyl)benzoyl)-6-methylindolin-5-yl)acetic acid], the IC50 was 13 nM.

`CCCNC(=O)N1CCCc2c1cc(C)c(C(OC(C)(C)C)C(=O)O)c2-c1ccc(C)cc1` (stereo not shown) [Example 210, 2-(tert-Butoxy)-2-(7-methyl-1-(propylcarbamoyl)-5-(p-tolyl)-1,2,3,4-tetrahydroquinolin-6-yl)acetic acid] gave an IC50 of 4290 nM.

Turning to `Cc1cc2c(c(-c3cc(F)c4c(c3C)CCCO4)c1[C@H](OC(C)(C)C)C(=O)O)CCN2C(=O)C(C)(C)C` (atropisomer, axis not shown) [Example 120, (S)-2-(tert-Butoxy)-2-((R)-4-(8-fluoro-5-methylchroman-6-yl)-6-methyl-1-pivaloylindolin-5-yl)acetic acid], the half-inhibitory concentration (IC50) turned out to be 91 nM.

The compound `COc1ccc(C(=O)N2CCc3c2cc(C)c([C@H](OC(C)(C)C)C(=O)O)c3-c2cc(F)c3c(c2C)CCCO3)c(OC)c1OC` (atropisomer, axis not shown) [Example 126, (S)-2-(tert-Butoxy)-2-((R)-4-(8-fluoro-5-methylchroman-6-yl)-6-methyl-1-(2,3,4-trimethoxybenzoyl)indolin-5-yl)acetic acid] registered an IC50 of 5 nM.

Take `Cc1ccc(-c2c3c(cc(C)c2C(OC(C)(C)C)C(=O)O)N(Cc2ccc(F)c(F)c2)CCC3)cc1` (stereo not shown) [Example 212, 2-(tert-Butoxy)-2-(1-(3,4-difluorobenzyl)-7-methyl-5-(p-tolyl)-1,2,3,4-tetrahydroquinolin-6-yl)acetic acid]: the IC50 is 1030 nM.

Regarding `COc1ccc(C(=O)N2CCc3c2cc(C)c([C@H](OC(C)(C)C)C(=O)O)c3-c2ccc3c(c2C)CCCO3)c(OC)c1` (atropisomer, axis not shown) [Example 185, (S)-2-(tert-Butoxy)-2-((R)-1-(2,4-dimethoxybenzoyl)-6-methyl-4-(5-methylchroman-6-yl)indolin-5-yl)acetic acid], the IC50 was determined as 9 nM.

`Cc1cc2c(c(-c3cc(F)c4c(c3C)CCCO4)c1[C@H](OC(C)(C)C)C(=O)O)CCN2C(=O)c1ccc(Cl)cc1Cl` (atropisomer, axis not shown) [Example 70, (S)-2-(tert-Butoxy)-2-((R)-1-(2,4-dichlorobenzoyl)-4-(8-fluoro-5-methylchroman-6-yl)-6-methylindolin-5-yl)acetic acid] showed an IC50 of 5 nM.

`COc1ccc(C(=O)N2CCc3c2cc(C)c([C@H](OC(C)(C)C)C(=O)O)c3-c2ccc(C)cc2)cc1F` [Example 11, (S)-2-(tert-Butoxy)-2-(1-(3-fluoro-4-methoxybenzoyl)-6-methyl-4-(p-tolyl)indolin-5-yl)acetic acid] returned an IC50 of 4 nM.

Consider `Cc1ccc(-c2c3c(cc(C)c2[C@H](OC(C)(C)C)C(=O)O)N(C(=O)c2ccc(C)cc2C)CC3)cc1` [Example 9, (S)-2-(tert-Butoxy)-2-(1-(2,4-dimethylbenzoyl)-6-methyl-4-(p-tolyl)indolin-5-yl)acetic acid], for which the IC50 was 11 nM.

In turn, `Cc1ccc(-c2c3c(cc(C)c2[C@H](OC(C)(C)C)C(=O)O)N(C(=O)c2cc(C)cc(F)c2)CC3)cc1` [Example 32, (S)-2-(tert-Butoxy)-2-(1-(3-fluoro-5-methylbenzov)-6-methyl-4-(p-tolyl)indolin-5-yl)acetic acid] gave an IC50 of 11 nM.

In the case of `COc1ccc(Cl)cc1C(=O)N1CCc2c1cc(C)c([C@H](OC(C)(C)C)C(=O)O)c2-c1cc(F)c2c(c1C)CCCO2` (atropisomer, axis not shown) [Example 50, (S)-2-(tert-Butoxy)-2-((R)-1-(5-chloro-2-methoxybenzoyl)-4-(8-fluoro-5-methylchroman-6-yl)-6-methylindolin-5-yl)acetic acid], the IC50 was 5 nM.

Turning to `Cc1cc2c(c(-c3cc(F)c4c(c3C)CCCO4)c1C(OC(C)(C)C)C(=O)O)CCN2Cc1ccc(F)c(F)c1` (stereo not shown) [Example 2, 2-(tert-Butoxy)-2-(1-(3,4-difluorobenzyl)-4-(8-fluoro-5-methylchroman-6-yl)-6-methylindolin-5-yl)acetic acid], the IC50 was determined as 330 nM.

`Cc1cc2c(c(-c3cc(F)c4c(c3C)CCCO4)c1[C@H](OC(C)(C)C)C(=O)O)CCN2C(=O)C1CCCC1` (atropisomer, axis not shown) [Example 54, (S)-2-(tert-Butoxy)-2-((R)-1-(cyclopentanecarbonyl)-4-(8-fluoro-5-methylchroman-6-yl)-6-methylindolin-5-yl)acetic acid] showed an IC50 of 12 nM.

`Cc1cc2c(c(-c3cc(F)c4c(c3C)CCCO4)c1[C@H](OC(C)(C)C)C(=O)O)CCN2C(=O)c1cc(F)cc(C(F)(F)F)c1` [Example 143, (S)-2-(tert-Butoxy)-2-((R)-1-(3-fluoro-5-(trifluoromethyl)benzoyl)-4-(8-fluoro-5-methylchroman-6-yl)-6-methylindolin-5-yl)acetic acid]: half-maximal inhibition (IC50) required 14 nM.

For the origin of these results see US20190284136A1, “INDOLINE DERIVATIVES” (ViiV HEALTHCARE UK LIMITED, priority 2016, published 2019).
